According to article PMC7767399, “Targeted Isolation of Anti-Trypanosomal Naphthofuran-Quinone Compounds from the Mangrove Plant Avicennia lanata” (Marine Drugs, 2020):
Converted amounts (≈) assume the structure as drawn. Like-named read-outs stand apart in the source and are kept apart here.

Columns and labels:
[1] = test system: epimastigotes of T. cruzi; set-up: method as in PMID 8788584; details: read-out: 50% culture growth inhibition (GI50); cited from earlier work
[2] = test system: epimastigotes of T. cruzi; set-up: method as in doi:10.1016/0960-894X(95)00248-R; details: cited from earlier work
T. b. brucei = test: Anti-trypanosomal Alamar blue 96-well microplate assay; type: cell-based, Trypanosoma brucei brucei S427 (blood stream form); details: for MIC: read-out: MIC (minimum inhibitory concentration necessary to achieve 90% growth inhibition); for anti-trypanosomal activity (in words): screening of extract/fractions at 20, 10 and 5 μg/mL, pure compounds by MIC
Method: Each fraction was screened at different concentrations of 20, 10 and 5 μg/mL. The assay was performed in duplicate for each sample.
MIC assays were performed for samples having greater than 90% inhibition at a concentration of 20 μM in the initial screening campaign. The MIC values of the isolated compounds against T. b. brucei were determined by averaging the results of two independent assays. The concentrations were averaged and converted to μM.
The activity of the pure compounds was tested in vitro against the blood stream form of Trypanosomal brucei brucei (T. b. brucei) S427. The activity of the samples was determined using the well-established Alamar blue™ 96-well microplate assay, in which the screening procedure was modified from the microplate Alamar blue assay, to determine the drug sensitivity of African trypanosomes. The samples were initially screened at one concentration (20 μg/mL crude extracts or fractions, 20 μM for pure compounds) to determine their in vitro activity. Stock solutions of tested samples in DMSO (Acros Organics BVBA, Janssen Pharmaceutical, Geel, Belgium) were prepared at concentrations of 10 mg/mL (extracts) or 10 mM for pure compounds. The concentration of DMSO should not exceed 0.5% of the final test solution.

PNT2A cells = test: Cytotoxicity Alamar Blue assay on normal prostatic epithelial cells; type: cell-based, human; details: 100 μg/mL, % of DMSO control values, n = 3
Method: Meanwhile, the initial screening for cytotoxicity activity of the isolated compounds was performed on human normal prostatic epithelial cells (PNT2A) at 100 μg/mL. […] In the initial screening, if the cell viability is less than 60%, a concentration response test at 0.3 to 300 μg/mL was carried on.
The pure compounds from mangrove plant, A. lanata were tested for cytotoxicity in vitro against human normal prostatic epithelial cell line (PNT2A) derived from ECACC (Sigma-Aldrich, Dorset, UK).
The cytotoxicity activity of the pure compounds was determined using the well-established Alamar Blue™ redox-based 96-well microplate assay, in which the screening procedure was modified from. PNT2A cells were seeded into 96-well microplate assay at density of 0.5 × 10^4 cells/well in 100 μL of Dulbecco’s modified Eagle’s medium (DMEM; Invitrogen, Paisley, UK) and incubated at 37 °C, 5% CO2 with a humidified atmosphere for 24 h. […] The microplate plate was incubated at 37 °C, 5% CO2 with a humidified atmosphere for 24 h, then 10 μL of Alamar blue was added. The microplate was further incubated for another 20 h, then the fluorescence was measured using a Wallac Victor 2 microplate reader (Perkin Elmer, Cambridge, UK) (excitation: 530 nm, emission 590 nm). The results were calculated as % of the DMSO control values.

[3] = test system: Giardia lamblia trophozoites; set-up: method as in doi:10.29356/jmcs.v56i2.305; details: read-out: IC50 (giardicidal activity); cited from earlier work
T. b. rhodesiense = test system: T. b. rhodesiense; set-up: method as in PMID 21438586; details: T. b. rhodesiense in vitro bloodstream trypomastigotes; cited from earlier work
T. cruzi = test system: T. cruzi; set-up: method as in earlier work; details: cited from earlier work
[4] = test system: bloodstream strain of T. b. brucei; set-up: method as in PMID 17637068; details: cited from earlier work
[5] = different strains of T. cruzi epimastigotes, at 13–17 μM of the tested compounds
[6] = T. cruzi epimastigotes, compounds with two methoxy groups on the benzene ring
[7] = T. b. brucei, two independent assays
[8] = Trypanosoma brucei, T. b. brucei, two independent assays

CC1OC2=C(C(=O)c3ccccc3C2=O)C1(C)C (single isomer, unassigned; (-)) [(−)-2,3,3-trimethyl-2-3-dihydronaphtho [2,3-b]furan-4,9-quinone]
GI50 [1]: 2.1 to 5.2 µM

COc1ccc2c(c1)C(=O)c1cc(C(C)O)oc1C2=O (stereo not drawn) [2-(1-hydroxyethyl)-6-methoxynaphtho[2,3-b]furan-4,9-quinone]
growth inhibition (GI) [2, 5]: 100%

COc1ccc2c(c1OC)C(=O)c1oc(C(C)O)cc1C2=O (stereo not drawn) [2-(1-hydroxyethyl)-7,8-dimethoxynaphtho[2,3-b]furan-4,9-quinone]
growth inhibition (GI) [2, 6]: 22%

COc1ccc2c(c1)C(=O)c1cc(C(C)=O)oc1C2=O [2-acetyl-6-methoxynaphtho[2,3-b]furan4,9-quinone]
growth inhibition (GI) [2, 5]: 100%

COc1ccc2c(c1OC)C(=O)c1oc(C(C)=O)cc1C2=O [2-acetyl-7,8-dimethoxynaphtho[2,3-b] furan-4,9-quinone]
growth inhibition (GI) [2, 6]: 45%

COc1ccc2c(c1OC)C(=O)c1ccoc1C2=O [5,6-dimethoxynaphtho [2,3-b]furan-4,9-quinone]
growth inhibition (GI) [2, 6]: 45%

COc1ccc2c(c1OC)C(=O)c1occc1C2=O [7,8-dimethoxynaphtho[2,3-b]furan-4,9-quinone]
growth inhibition (GI) [2, 6]: 25%

CC(C)(O)C1Cc2c(c(O)c3ccccc3c2O)O1 (stereo not drawn) [Compound 1, 2-(2-hydroxypropan-2-yl)-2,3-dihydronaphtho-[2,3-b] furan-4,9-diol]
MIC (T. b. brucei; [7]): 12.50 µM (≈ 3.25 µg/mL) | MIC (T. b. brucei; [8]): 12.5 µM (≈ 3.25 µg/mL) | Cell viability, % of DMSO control (PNT2A cells): 86.1%

CC(C)=CCC12OC(C(C)(C)O)CC1=C(O)c1ccccc1C2=O (stereo not drawn) [Compound 2, glycosemiquinone]
MIC (T. b. brucei; [7]): 12.50 µM (≈ 4.11 µg/mL) | MIC (T. b. brucei; [8]): 12.5 µM (≈ 4.11 µg/mL) | Cell viability, % of DMSO control (PNT2A cells): 86.1%

COc1c2c(c(OC)c3ccccc13)OC(C(C)(C)O)C2 (stereo not drawn) [Compound 3, avicenol C]
MIC (T. b. brucei; [8]): 6.25 µM (≈ 1.8 µg/mL) | Cell viability, % of DMSO control (PNT2A cells): 78.3%

CC(C)(O)c1cc2c(o1)C(=O)c1ccccc1C2=O [Compound 4, avicequinone C]
MIC (T. b. brucei; [8]): 3.12 µM (≈ 0.8 µg/mL) | Cell viability, % of DMSO control (PNT2A cells): 68.6%

CC(C)=CCC12OC(C(C)(C)O)CC1C(=O)c1ccccc1C2=O (stereo not drawn) [Compound 5, glycoquinone]
MIC (T. b. brucei; [7]): 12.50 µM (≈ 4.11 µg/mL) | MIC (T. b. brucei; [8]): 12.5 µM (≈ 4.11 µg/mL) | Cell viability, % of DMSO control (PNT2A cells): 80.3%

CC1(C)CC[C@]2(C)CC=C3[C@]4(C)CC[C@H]5C(C)(C)C(=O)CC[C@]5(C)[C@H]4CC[C@@]3(C)[C@@H]2C1 [Compound 6, taraxerone]
anti-trypanosomal activity (in words) (T. b. brucei; T. b. brucei): inactive | MIC (T. b. brucei; [8]): 154 µM (≈ 65.5 µg/mL) | IC50 [3]: 26.7 µM | Cell viability, % of DMSO control (PNT2A cells): 88.8%

CC1(C)CC[C@]2(C)CC=C3[C@]4(C)CC[C@H]5C(C)(C)[C@@H](O)CC[C@]5(C)[C@H]4CC[C@@]3(C)[C@@H]2C1 [Compound 7, taraxerol]
anti-trypanosomal activity (in words) (T. b. brucei; T. b. brucei): inactive | MIC (T. b. brucei; [8]): 145 µM (≈ 62 µg/mL) | IC50 [3]: 37.8 µM | IC50 (T. b. rhodesiense): < 10 µM | Cell viability, % of DMSO control (PNT2A cells): 92.8%

CC[C@H](CC[C@@H](C)[C@H]1CC[C@H]2[C@@H]3CC=C4C[C@@H](O)CC[C@]4(C)[C@H]3CC[C@]12C)C(C)C [Compound 8, β-sitosterol]
anti-trypanosomal activity (in words) (T. b. brucei; T. b. brucei): inactive | MIC (T. b. brucei; Trypanosoma brucei): 142 µM (≈ 59 µg/mL) | Cell viability, % of DMSO control (PNT2A cells): 96.2%

CC[C@H](/C=C/[C@@H](C)[C@H]1CC[C@H]2[C@@H]3CC=C4C[C@@H](O)CC[C@]4(C)[C@H]3CC[C@]12C)C(C)C [Compound 9, stigmasterol]
anti-trypanosomal activity (in words) (T. b. brucei; T. b. brucei): very low activity | MIC (T. b. brucei; Trypanosoma brucei): 126 µM (≈ 52.2 µg/mL) | Cell viability, % of DMSO control (PNT2A cells): 98.7%

Cc1cccc2c1C(=O)c1c(CO)coc1C2=O [maturone]
trypanocidal activity (in words) (T. cruzi): potent trypanocidal activity

Cc1ccc(C(=O)Nc2ccc(S(=O)(=O)O)c3cc(S(=O)(=O)O)cc(S(=O)(=O)O)c23)cc1NC(=O)c1cccc(NC(=O)Nc2cccc(C(=O)Nc3cc(C(=O)Nc4ccc(S(=O)(=O)O)c5cc(S(=O)(=O)O)cc(S(=O)(=O)O)c45)ccc3C)c2)c1 [suramin, reference compound]
MIC (T. b. brucei; Trypanosoma brucei): 0.11 µM (≈ 0.143 µg/mL)

CC(C)(C)CC(C)(C)c1ccc(OCCO)cc1 [triton X, reference compound]
Cell viability, % of DMSO control (PNT2A cells): 0.082%

CC1(C)CC[C@]2(C)CC[C@]3(C)C(=CC[C@@H]4[C@@]5(C)CC[C@H](O)C(C)(C)[C@@H]5CC[C@]43C)[C@@H]2C1 [β-amyrin]
IC50 [4]: 127 µM
